Experimental data from US4971970A, “Benzoheterocyclic compounds” (Otsuka Pharmaceutical Company, Limited, priority 1988, dated 1990).

Test system: Escherichia coli No. 29 strain
Test: Antimicrobial activity in vivo (ED50 in mice infected with Escherichia coli No. 29)
Details: mice (10 per group), i.p. infection with E. coli No. 29 (10^5 -10^6 cells/mouse) in mucin, compound oral one hour after infection, observed one week, Probit method, read-out: 50 % effective dose (ED50)
Experimental: Experiment (Antimicrobial activity in vivo)
Escherichia coli No. 29 strain was cultured in a nutrient medium at 37° C., and the culture broth was diluted with the same medium and thereto was added an equivolume of 6 % mucin solution to prepare a cell solution.
The cell solution thus prepared (0.5 ml) (e. coli cells; 10^5 -10^6 cells/mouse) was intraperitoneally administered to mice (10 mice per group). […] From the number of dead mice and the survival mice, the 50 % effective dose (ED50) of the test compound was calculated by Probit method.

Cc1c(F)c(N2CCNC(C)C2)cc2c1c(=O)c(C=O)cn2C1CC1 (stereo not shown) [1-Cyclopropyl-6-fluoro-7-(3-methyl-1-piperazinyl)-5-methyl-3-formyl-1,4-dihydro-4-oxoquinoline]
ED50: 0.331 mg/kg
